Several values for one entry are separate records, joined by “and”; a condition that tells them apart may be missing. Equal values may be shown once. Where a name gives a salt, the structure may show the parent alone. Read-outs that look alike come from different tables or passages of the source.
What was measured:
[1] = target: T1, D1 (Homo sapiens, UniProt P21728); experiment: Human D1 receptor binding assay ([3H]-SCH23390 competition)
Description: D1 binding assays were performed using over-expressing LTK human cell lines. […] These ligand and tissue concentrations were used in time course studies to determine linearity and equilibrium conditions for binding. Binding was at equilibrium with the specified amount of tissue in 30 minutes at 37° C. […] The pellet was resuspended in assay buffer (50 mM Tris (pH 7.4@ RT) containing 4 mM MgSO4 and 0.5 mM EDTA). […] After a 30 minute incubation period at 37° C., assay samples were rapidly filtered through Unifilter-96 GF/B PEI-coated filter plates and rinsed with 50 mM Tris buffer (pH 7.4 at 4° C.). […] Ki values were calculated according to the Cheng-Prusoff equation.

[2] = target: T1, D1; experiment: D1 cAMP HTRF assay (HEK293T/hD1#1 stable cell line); assay type: cell-based; set-up: expressed in transfected cells
Description: This assay was used to determine the ability of a test compound to agonize (including partially agonize) D1. A Mab anti-cAMP labeled Cryptate visualizes the tracer. […] The signal, therefore, is inversely proportional to the concentration of cAMP in the sample.
The cAMP Dynamic kit was obtained from Cisbio International (Cisbio 62AM4PEJ). Multidrop Combi (Thermo Scientific) was used for assay additions. Envision (PerkinElmer) reader was used to read HTRF.
A HEK293T/hD1#1 stable cell line was constructed internally (Pfizer Ann Arbor). […] One mL aliquots of the cells were made in Cryo-vials and frozen at −80° C. for future use in the D1 HTRF assay.
Frozen cells were quickly thawed, re-suspended in 50 mL warm media and allowed to sit for 5 min prior to centrifugation (1000 rpm) at room temperature. Media was removed and cell pellet was re-suspended in PBS/0.5 μM IBMX generating 2e5 cells/mL. […] Cells and compounds were incubated at room temperature for 30 min. Working solutions of cAMP-D2 and anti-cAMP-cryptate were prepared according to Cisbio instructions. Using Multidrop, 5 μL cAMP-D2 working solution was added to the assay plate containing the test compound and cells. Using Multidrop, 5 μL anti-cAMP-cryptate working solutions was added to assay plate containing test compound, cells and cAMP-D2. Assay plate was incubated for 1 hour at room temperature. Assay plate was read on Envision plate reader using Cisbio recommended settings. A cAMP standard curve was generated using cAMP stock solution provided in the Cisbio kit.
Data analysis was done using computer software. Percent effects were calculated from the compound controls. Ratio EC50 was determined using the raw ratio data from the Envision reader. The cAMP standard curve was used in an analysis program to determine cAMP concentrations from raw ratio data. cAMP EC50 was determined using the calculated cAMP data.

[3] = Human D1 Receptor Binding, Ki (nM), Geometric mean of 2-4 determinations, a: >=5 determinations, d: single determination

T1 sequence (P21728 whole entry): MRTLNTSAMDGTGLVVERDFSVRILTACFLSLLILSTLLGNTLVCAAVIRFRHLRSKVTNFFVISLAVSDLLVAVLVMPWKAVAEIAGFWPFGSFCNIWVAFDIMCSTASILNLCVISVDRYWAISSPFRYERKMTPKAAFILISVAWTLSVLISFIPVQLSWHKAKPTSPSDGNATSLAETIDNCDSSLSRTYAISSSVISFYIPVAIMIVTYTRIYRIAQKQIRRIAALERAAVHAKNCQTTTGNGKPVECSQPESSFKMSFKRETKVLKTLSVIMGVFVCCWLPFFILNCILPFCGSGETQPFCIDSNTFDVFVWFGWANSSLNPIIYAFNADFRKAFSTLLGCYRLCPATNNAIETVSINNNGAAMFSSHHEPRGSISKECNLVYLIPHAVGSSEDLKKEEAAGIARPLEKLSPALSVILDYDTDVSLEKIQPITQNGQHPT

Row | Ki [1, 3] | EC50 [2] | Ki ([1]; read-out: Human D1 Receptor Binding, Ki (nM), Geometric mean of 2-4 determinations, a: >=5 determinations, d: single determination) | Structure (SMILES)
1 | 24.7 nM | 0.246 µM and 0.426 µM | – | Cc1cc(Oc2nccc3occc23)ccc1-c1c(C)nc(O)c2nccn12 [Example 19, 5-[4-(Furo[3,2-c]pyridin-4-yloxy)-2-methylphenyl]-6-methylimidazo[1,2-a]pyrazin-8-ol]
2 | 138 nM | 0.622 µM | – | Cc1ncnc(C)c1-c1ccc(Oc2nccc3occc23)cc1CO [Example 20, [2-(4,6-Dimethylpyrimidin-5-yl)-5-(furo[3,2-c]pyridin-4-yloxy)phenyl]methanol]
3 | 36.2 nM | 0.0858 µM | – | Cc1ncnc(C)c1-c1ccc(Oc2nccc3occc23)cc1CF [Example 21, 4-[4-(4,6-Dimethylpyrimidin-5-yl)-3-(fluoromethyl)phenoxy]furo[3,2-c]pyridine]
4 | 162 nM | 0.774 µM and 1.34 µM | – | Cc1cc(Oc2nccc3occ(C)c23)ccc1-c1c(C)ncnc1C [Example 22, 4-[4-(4,6-Dimethylpyrimidin-5-yl)-3-methylphenoxy]-3-methylfuro[3,2-c]pyridine]
5 | 30.6 nM | 0.848 µM | – | Cc1ncnc(C)c1-c1ccc(Oc2nccc3occc23)c2[nH]ccc12 [Example 23, 4-{[4-(4,6-Dimethylpyrimidin-5-yl)-1H-indol-7-yl]oxy}furo[3,2-c]pyridine]
6 | 33 nM | 2.06 µM and 2.59 µM | – | CCOc1ncnc(C)c1-c1ccc(Oc2nccc3occc23)cc1C [Example 24, 4-[4-(4-Ethoxy-6-methylpyrimidin-5-yl)-3-methylphenoxy]furo[3,2-c]pyridine]
7 | 19.3 nM | 0.11 µM | – | Cc1n[nH]c(=O)c(C)c1-c1ccc(Oc2nccc3occc23)cc1 [Example 28, 5-[4-(Furo[3,2-c]pyridin-4-yloxy)phenyl]-4,6-dimethylpyridazin-3(2H)-one]
8 | 329 nM | 2.82 µM | – | Cc1cnccc1-c1c(C)cc(Oc2nccc3occc23)cc1C [Example 29, 4-[3,5-Dimethyl-4-(3-methylpyridin-4-yl)phenoxy]furo[3,2-c]pyridine]
9 | 220 nM | 2.48 µM | – | c1ccc2c(-c3cccc4nccn34)ccc(Oc3nccc4occc34)c2c1 [Example 30, 4-{[4-(Imidazo[1,2-a]pyridin-5-yl)naphthalen-1-yl]oxy}furo[3,2-c]pyridine, trifluoroacetate salt]
10 | 316 nM | 1.03 µM and 1.19 µM | – | Cc1nc2cnccc2n1-c1ccc(Oc2nccc3occc23)cc1 [Example 31, 1-[4-(furo[3,2-c]pyridin-4-yloxy)phenyl]-2-methyl-1H-imidazo[4,5-c]pyridine]
11 | 281 nM | 2.24 µM | – | Cc1cnn(C2CC2)c1-c1ccc(Oc2nccc3occc23)cc1 [Example 32, 4-[4-(1-cyclopropyl-4-methyl-1H-pyrazol-5-yl)phenoxy]furo[3,2-c]pyridine, trifluoroacetate salt]
12 | 111 nM | 2.27 µM | – | COc1ccc2cnccc2c1-c1ccc(Oc2nccc3occc23)cc1 [Example 33, 5-[4-(furo[3,2-c]pyridin-4-yloxy)phenyl]-6-methoxyisoquinoline]
13 | 20 nM | 0.182 µM | – | COc1cc(Oc2nccc3occc23)ccc1-c1cccc2nccn12 [Example 34, 4-[4-(imidazo[1,2-a]pyridin-5-yl)-3-methoxyphenoxy]furo[3,2-c]pyridine]
14 | – | 0.0636 µM | 6.86 nM | Cc1cc(Oc2nccc3occc23)ccc1-c1c(C)ccc2nccn12 [Example 35, 4-[3-methyl-4-(6-methylimidazo[1,2-a]pyridin-5-yl)phenoxy]furo[3,2-c]pyridine]
15 | 120 nM | 0.378 µM and 0.412 µM | – | Cc1cc(Oc2nccc3occc23)ccc1-c1cncc2nccn12 [Example 36, 5-[4-(furo[3,2-c]pyridin-4-yloxy)-2-methylphenyl]imidazo[1,2-a]pyrazine]
16 | 3.54 nM | 0.0469 µM | – | COc1cc(Oc2nccc3occc23)ccc1-c1c(C)ccc2nccn12 [Example 37, 4-[3-methoxy-4-(6-methylimidazo[1,2-a]pyridin-5-yl)phenoxy]furo[3,2-c]pyridine]

Row | Ki [1, 3] | EC50 [2] | Ki ([1]; read-out: Human D1 Receptor Binding, Ki (nM), Geometric mean of 2-4 determinations, a: >=5 determinations, d: single determination) | Structure (SMILES)
17 | 36 nM | 0.2 µM | – | CNc1cc(Oc2nccc3occc23)ccc1-c1cccc2nccn12 [Example 38, 5-(furo[3,2-c]pyridin-4-yloxy)-2-(imidazo[1,2-a]pyridin-5-yl)-N-methylaniline]
18 | 91 nM | 0.415 µM | – | Cc1nc2cnccc2n1-c1ccc(Oc2nccc3occc23)cc1Cl [Example 39, 1-[2-chloro-4-(furo[3,2-c]pyridin-4-yloxy)phenyl]-2-methyl-1H-imidazo[4,5-c]pyridine]
19 | 107 nM | 1.27 µM | – | c1cc(-c2ccc(Oc3nccc4occc34)cc2OCc2cscn2)n2ccnc2c1 [Example 40, 4-[4-(imidazo[1,2-a]pyridin-5-yl)-3-(1,3-thiazol-4-ylmethoxy)phenoxy]furo[3,2-c]pyridine, trifluoroacetate salt]
20 | 72.1 nM | 0.517 µM | – | CCC(=O)COc1cc(Oc2nccc3occc23)ccc1-c1cccc2nccn12 [Example 41, 1-[5-(furo[3,2-c]pyridin-4-yloxy)-2-(imidazo[1,2-a]pyridin-5-yl)phenoxy]butan-2-one, trifluoroacetate salt]
21 | 118 nM | 0.406 µM | – | OCCOc1cc(Oc2nccc3occc23)ccc1-c1cccc2nccn12 [Example 42, 2-[5-(furo[3,2-c]pyridin-4-yloxy)-2-(imidazo[1,2-a]pyridin-5-yl)phenoxy]ethanol, trifluoroacetate salt]
22 | 211 nM | 0.605 µM | – | O=C(COc1cc(Oc2nccc3occc23)ccc1-c1cccc2nccn12)NC1CC1 [Example 43, N-cyclopropyl-2-[5-(furo[3,2-c]pyridin-4-yloxy)-2-(imidazo[1,2-a]pyridin-5-yl)phenoxy]acetamide, trifluoroacetate salt]
23 | 129 nM | 0.651 µM | – | COC(=O)COc1cc(Oc2nccc3occc23)ccc1-c1cccc2nccn12 [Example 44, methyl [5-(furo[3,2-c]pyridin-4-yloxy)-2-(imidazo[1,2-a]pyridin-5-yl)phenoxy]acetate, trifluoroacetate salt]
24 | 182 nM | 1.14 µM | – | Cc1cc(Oc2nccc3occc23)ccc1-c1c(C)cnc2ncnn12 [Example 45, 7-[4-(furo[3,2-c]pyridin-4-yloxy)-2-methylphenyl]-6-methyl[1,2,4]triazolo[1,5-a]pyrimidine]
25 | 316 nM | 2.12 µM | – | O=C(NC1CCC1)c1cc(Oc2nccc3occc23)ccc1-c1cccc2nccn12 [Example 46, N-cyclobutyl-5-(furo[3,2-c]pyridin-4-yloxy)-2-(imidazo[1,2-a]pyridin-5-yl)benzamide, trifluoroacetate salt]
26 | 302 nM | 0.935 µM | – | CCOCC(=O)Nc1cc(Oc2nccc3occc23)ccc1-c1cccc2nccn12 [Example 47, 2-ethoxy-N-[5-(furo[3,2-c]pyridin-4-yloxy)-2-(imidazo[1,2-a]pyridin-5-yl)phenyl]acetamide]
27 | 68.8 nM | 2.07 µM | – | Cn1cncc1CNc1cc(Oc2nccc3occc23)ccc1-c1cccc2nccn12 [Example 48, 5-(furo[3,2-c]pyridin-4-yloxy)-2-(imidazo[1,2-a]pyridin-5-yl)-N-[(1-methyl-1H-imidazol-5-yl)methyl]aniline, trifluoroacetate salt]
28 | 121 nM | 3.68 µM | – | CC(NCc1cc(Oc2nccc3occc23)ccc1-c1cccc2nccn12)c1cncs1 (stereo not shown) [Example 49, N-[5-(furo[3,2-c]pyridin-4-yloxy)-2-(imidazo[1,2-a]pyridin-5-yl)benzyl]-1-(1,3-thiazol-5-yl)ethanamine, trifluoroacetate salt]
29 | 55.1 nM | 1.13 µM | – | CN(Cc1ccccn1)Cc1cc(Oc2nccc3occc23)ccc1-c1cccc2nccn12 [Example 50, 1-[5-(furo[3,2-c]pyridin-4-yloxy)-2-(imidazo[1,2-a]pyridin-5-yl)phenyl]-N-methyl-N-(pyridin-2-ylmethyl)methanamine, trifluoroacetate salt]
30 | 61.7 nM | 0.799 µM and 1.22 µM | – | COc1cc(Oc2nccc3occc23)ccc1-c1c(C)ccnc1C#N [Example 51, 3-[4-(furo[3,2-c]pyridin-4-yloxy)-2-methoxyphenyl]-4-methylpyridine-2-carbonitrile, trifluoroacetate salt]
31 | 53 nM | 0.463 µM | – | Cc1cc(Oc2nccc3occc23)ccc1-c1cccnc1C [Example 52, 4-[3-methyl-4-(2-methylpyridin-3-yl)phenoxy]furo[3,2-c]pyridine]
32 | 173 nM | 0.953 µM | – | Cc1cc(Oc2nccc3occc23)ccc1-c1nc(N)cnc1C [Example 53, 6-[4-(furo[3,2-c]pyridin-4-yloxy)-2-methylphenyl]-5-methylpyrazin-2-amine, trifluoroacetate salt]

From patent US20150291625A1 (PFIZER INC., priority 2012, published 2015)
